{"source": "ChEMBL document CHEMBL5465560", "about": "“Selectivity Literature for EUbOPEN Chemogenomic Library” (2024)", "key": {"[1]": {"target": "Mitogen-activated protein kinase 10 (Homo sapiens, UniProt P53779)", "experiment": "Selectivity interaction (Ambit KINOMEscan and KiNATiv profiling in Jurkat cells) EUB0000090b MAPK10", "type": "cell-based", "conditions": "at 1 µM"}, "[2]": {"target": "Serine/threonine-protein kinase SMG1 (Homo sapiens) (UniProt Q96Q15)", "experiment": "Selectivity interaction (ActivX KiNativ screen (kinase selectivity in THP-1 cell lysates)) EUB0000639a SMG1", "type": "subcellular", "conditions": "lysate, at 0.01 µM"}, "[3]": {"target": "T1, Serine/threonine-protein kinase TNNI3K (Homo sapiens) (UniProt Q59H18)", "T1 sequence (whole entry)": "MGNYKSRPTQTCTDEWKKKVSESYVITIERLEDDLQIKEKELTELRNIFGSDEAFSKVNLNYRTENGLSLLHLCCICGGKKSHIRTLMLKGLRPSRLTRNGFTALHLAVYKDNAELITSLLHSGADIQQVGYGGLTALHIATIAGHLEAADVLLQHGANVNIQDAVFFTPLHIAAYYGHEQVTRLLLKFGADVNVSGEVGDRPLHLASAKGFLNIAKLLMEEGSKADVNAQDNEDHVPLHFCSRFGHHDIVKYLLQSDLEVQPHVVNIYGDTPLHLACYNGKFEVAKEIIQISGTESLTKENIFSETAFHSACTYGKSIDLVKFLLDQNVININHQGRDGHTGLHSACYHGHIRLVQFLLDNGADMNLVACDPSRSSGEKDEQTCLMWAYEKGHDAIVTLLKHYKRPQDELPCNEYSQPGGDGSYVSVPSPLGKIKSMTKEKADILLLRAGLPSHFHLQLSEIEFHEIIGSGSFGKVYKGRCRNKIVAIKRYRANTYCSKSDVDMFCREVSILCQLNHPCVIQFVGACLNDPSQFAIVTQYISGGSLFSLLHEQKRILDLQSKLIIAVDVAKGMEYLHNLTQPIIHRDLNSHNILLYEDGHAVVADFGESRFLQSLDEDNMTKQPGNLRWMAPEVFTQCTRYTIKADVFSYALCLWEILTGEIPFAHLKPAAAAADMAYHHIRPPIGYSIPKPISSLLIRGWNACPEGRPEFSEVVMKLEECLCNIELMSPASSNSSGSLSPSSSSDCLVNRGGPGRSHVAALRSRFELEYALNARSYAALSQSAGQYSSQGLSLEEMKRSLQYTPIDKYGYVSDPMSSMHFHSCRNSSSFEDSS", "conditions": "at 10 µM"}, "[4]": {"target": "Cyclin-dependent kinase 18 (Homo sapiens) (UniProt Q07002)", "sequence (Q07002 whole entry)": "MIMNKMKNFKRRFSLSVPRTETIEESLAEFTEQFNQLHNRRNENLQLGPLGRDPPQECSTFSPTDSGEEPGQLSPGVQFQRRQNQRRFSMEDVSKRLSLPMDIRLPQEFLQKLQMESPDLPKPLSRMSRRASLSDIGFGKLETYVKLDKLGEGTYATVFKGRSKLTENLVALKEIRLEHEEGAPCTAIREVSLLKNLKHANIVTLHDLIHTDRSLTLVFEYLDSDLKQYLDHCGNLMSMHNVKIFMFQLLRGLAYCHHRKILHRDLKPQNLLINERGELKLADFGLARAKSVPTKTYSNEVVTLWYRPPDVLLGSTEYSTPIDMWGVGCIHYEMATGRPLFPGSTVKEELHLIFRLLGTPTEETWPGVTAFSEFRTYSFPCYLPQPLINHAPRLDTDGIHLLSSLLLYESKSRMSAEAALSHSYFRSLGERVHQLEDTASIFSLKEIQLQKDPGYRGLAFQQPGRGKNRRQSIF", "experiment": "Selectivity interaction (KinomeScan (DiscoverX)) EUB0000229b CDK18", "conditions": "at 10 µM"}, "[5]": {"target": "T2, Serine/threonine-protein kinase ULK2 (Homo sapiens) (UniProt Q8IYT8)", "T2 sequence (whole entry)": "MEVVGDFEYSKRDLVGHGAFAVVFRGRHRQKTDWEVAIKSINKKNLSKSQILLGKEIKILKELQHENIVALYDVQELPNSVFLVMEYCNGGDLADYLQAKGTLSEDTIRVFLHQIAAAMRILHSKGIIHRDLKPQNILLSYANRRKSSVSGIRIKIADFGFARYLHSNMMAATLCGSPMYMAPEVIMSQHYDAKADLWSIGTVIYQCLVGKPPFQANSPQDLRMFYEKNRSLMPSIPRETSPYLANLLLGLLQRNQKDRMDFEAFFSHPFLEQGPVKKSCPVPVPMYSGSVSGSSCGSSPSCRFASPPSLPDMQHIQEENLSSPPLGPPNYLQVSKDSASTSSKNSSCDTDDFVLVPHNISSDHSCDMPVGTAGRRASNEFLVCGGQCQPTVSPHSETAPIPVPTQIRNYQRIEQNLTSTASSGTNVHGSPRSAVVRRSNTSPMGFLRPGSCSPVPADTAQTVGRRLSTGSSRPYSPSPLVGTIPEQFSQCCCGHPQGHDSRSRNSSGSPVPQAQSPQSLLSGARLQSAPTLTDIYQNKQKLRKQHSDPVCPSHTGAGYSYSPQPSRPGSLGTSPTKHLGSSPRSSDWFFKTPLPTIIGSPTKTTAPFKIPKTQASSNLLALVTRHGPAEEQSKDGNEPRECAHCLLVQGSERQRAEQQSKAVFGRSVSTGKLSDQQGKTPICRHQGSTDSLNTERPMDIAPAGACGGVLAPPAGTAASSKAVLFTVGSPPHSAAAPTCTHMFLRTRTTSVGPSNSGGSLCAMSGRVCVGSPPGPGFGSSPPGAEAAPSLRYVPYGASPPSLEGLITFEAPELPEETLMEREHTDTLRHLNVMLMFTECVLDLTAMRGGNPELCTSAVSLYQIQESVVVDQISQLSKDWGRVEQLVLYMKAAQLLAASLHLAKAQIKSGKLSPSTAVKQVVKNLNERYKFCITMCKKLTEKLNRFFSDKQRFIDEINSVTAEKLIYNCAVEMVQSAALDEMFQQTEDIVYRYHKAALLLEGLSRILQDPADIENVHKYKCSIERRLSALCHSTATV", "experiment": "Selectivity interaction (KinomeScan (DiscoverX)) EUB0000229b ULK2", "conditions": "at 10 µM"}, "[6]": {"target": "Mitogen-activated protein kinase kinase kinase kinase 4 (Homo sapiens, UniProt O95819)", "experiment": "Selectivity interaction (KinomeScan (DiscoverX)) EUB0001079a MAP4K4", "conditions": "at 1 µM"}, "[7]": {"target": "SRSF protein kinase 3 (Homo sapiens) (UniProt Q9UPE1)", "sequence (Q9UPE1 whole entry)": "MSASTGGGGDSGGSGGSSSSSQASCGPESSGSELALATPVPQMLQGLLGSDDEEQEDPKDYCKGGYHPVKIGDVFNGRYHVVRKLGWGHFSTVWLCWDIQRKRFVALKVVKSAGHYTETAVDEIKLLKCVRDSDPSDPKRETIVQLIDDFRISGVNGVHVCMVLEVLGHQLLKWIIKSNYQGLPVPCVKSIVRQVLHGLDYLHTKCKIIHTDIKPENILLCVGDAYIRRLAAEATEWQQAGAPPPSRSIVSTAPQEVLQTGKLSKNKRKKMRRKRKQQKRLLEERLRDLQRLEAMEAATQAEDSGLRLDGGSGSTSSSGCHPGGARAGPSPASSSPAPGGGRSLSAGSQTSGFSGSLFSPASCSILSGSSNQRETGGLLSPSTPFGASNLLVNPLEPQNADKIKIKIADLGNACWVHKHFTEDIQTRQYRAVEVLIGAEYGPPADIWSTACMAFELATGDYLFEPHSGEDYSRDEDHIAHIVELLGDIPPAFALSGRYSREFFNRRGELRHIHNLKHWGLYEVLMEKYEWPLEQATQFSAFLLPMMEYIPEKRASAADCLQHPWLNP", "experiment": "Selectivity interaction (KinomeScan (DiscoverX)) EUB0000045b SRPK3"}, "[8]": {"system": "eIF-2-alpha kinase GCN2 (Homo sapiens), Q9P2K8 [S808G]", "sequence (Q9P2K8 whole entry S808G)": "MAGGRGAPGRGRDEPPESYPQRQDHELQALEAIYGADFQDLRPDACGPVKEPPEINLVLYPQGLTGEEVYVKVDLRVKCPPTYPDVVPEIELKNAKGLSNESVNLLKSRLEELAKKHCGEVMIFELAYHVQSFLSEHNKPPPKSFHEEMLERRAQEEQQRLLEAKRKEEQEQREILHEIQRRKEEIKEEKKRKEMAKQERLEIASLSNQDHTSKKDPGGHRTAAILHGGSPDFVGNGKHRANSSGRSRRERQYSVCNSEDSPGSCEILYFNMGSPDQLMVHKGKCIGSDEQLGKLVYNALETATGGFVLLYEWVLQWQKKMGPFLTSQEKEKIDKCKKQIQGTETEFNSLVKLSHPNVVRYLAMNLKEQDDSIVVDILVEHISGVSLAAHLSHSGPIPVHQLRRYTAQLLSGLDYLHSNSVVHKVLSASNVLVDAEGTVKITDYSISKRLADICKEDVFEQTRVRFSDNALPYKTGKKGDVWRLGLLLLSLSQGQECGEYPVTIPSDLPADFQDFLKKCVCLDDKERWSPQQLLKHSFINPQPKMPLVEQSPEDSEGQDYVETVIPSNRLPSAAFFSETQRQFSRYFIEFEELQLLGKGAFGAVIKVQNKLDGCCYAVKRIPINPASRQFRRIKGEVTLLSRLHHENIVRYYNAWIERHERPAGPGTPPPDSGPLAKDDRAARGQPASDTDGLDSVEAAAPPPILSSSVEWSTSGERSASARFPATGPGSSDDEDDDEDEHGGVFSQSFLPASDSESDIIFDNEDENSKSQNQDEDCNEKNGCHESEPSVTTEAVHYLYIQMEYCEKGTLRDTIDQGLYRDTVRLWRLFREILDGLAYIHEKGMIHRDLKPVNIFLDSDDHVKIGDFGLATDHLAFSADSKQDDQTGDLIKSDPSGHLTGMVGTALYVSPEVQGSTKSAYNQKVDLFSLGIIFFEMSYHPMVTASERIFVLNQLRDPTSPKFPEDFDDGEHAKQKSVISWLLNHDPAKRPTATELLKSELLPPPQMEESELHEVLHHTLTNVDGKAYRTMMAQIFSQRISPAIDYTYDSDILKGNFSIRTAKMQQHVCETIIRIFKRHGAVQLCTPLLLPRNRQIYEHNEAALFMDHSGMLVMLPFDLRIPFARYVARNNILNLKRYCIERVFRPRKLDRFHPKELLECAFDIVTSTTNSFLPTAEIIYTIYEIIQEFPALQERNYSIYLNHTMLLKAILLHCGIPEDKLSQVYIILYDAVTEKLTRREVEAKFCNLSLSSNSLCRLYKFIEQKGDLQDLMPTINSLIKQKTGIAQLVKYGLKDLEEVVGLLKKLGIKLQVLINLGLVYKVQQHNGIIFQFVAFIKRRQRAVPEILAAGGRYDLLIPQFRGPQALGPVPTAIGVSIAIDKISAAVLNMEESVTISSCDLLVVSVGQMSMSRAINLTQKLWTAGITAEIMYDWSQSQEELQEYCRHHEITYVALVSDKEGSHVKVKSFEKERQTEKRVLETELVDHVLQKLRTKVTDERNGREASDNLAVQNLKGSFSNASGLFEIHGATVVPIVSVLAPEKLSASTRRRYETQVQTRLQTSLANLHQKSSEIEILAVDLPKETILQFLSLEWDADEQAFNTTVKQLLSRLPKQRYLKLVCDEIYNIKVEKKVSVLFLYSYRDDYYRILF", "experiment": "Selectivity interaction (KinomeScan (DiscoverX)) EUB0000045b EIF2AK4"}, "[9]": {"target": "Transient receptor potential cation channel subfamily M member 6 (Homo sapiens) (UniProt Q9BX84)", "sequence (Q9BX84 whole entry)": "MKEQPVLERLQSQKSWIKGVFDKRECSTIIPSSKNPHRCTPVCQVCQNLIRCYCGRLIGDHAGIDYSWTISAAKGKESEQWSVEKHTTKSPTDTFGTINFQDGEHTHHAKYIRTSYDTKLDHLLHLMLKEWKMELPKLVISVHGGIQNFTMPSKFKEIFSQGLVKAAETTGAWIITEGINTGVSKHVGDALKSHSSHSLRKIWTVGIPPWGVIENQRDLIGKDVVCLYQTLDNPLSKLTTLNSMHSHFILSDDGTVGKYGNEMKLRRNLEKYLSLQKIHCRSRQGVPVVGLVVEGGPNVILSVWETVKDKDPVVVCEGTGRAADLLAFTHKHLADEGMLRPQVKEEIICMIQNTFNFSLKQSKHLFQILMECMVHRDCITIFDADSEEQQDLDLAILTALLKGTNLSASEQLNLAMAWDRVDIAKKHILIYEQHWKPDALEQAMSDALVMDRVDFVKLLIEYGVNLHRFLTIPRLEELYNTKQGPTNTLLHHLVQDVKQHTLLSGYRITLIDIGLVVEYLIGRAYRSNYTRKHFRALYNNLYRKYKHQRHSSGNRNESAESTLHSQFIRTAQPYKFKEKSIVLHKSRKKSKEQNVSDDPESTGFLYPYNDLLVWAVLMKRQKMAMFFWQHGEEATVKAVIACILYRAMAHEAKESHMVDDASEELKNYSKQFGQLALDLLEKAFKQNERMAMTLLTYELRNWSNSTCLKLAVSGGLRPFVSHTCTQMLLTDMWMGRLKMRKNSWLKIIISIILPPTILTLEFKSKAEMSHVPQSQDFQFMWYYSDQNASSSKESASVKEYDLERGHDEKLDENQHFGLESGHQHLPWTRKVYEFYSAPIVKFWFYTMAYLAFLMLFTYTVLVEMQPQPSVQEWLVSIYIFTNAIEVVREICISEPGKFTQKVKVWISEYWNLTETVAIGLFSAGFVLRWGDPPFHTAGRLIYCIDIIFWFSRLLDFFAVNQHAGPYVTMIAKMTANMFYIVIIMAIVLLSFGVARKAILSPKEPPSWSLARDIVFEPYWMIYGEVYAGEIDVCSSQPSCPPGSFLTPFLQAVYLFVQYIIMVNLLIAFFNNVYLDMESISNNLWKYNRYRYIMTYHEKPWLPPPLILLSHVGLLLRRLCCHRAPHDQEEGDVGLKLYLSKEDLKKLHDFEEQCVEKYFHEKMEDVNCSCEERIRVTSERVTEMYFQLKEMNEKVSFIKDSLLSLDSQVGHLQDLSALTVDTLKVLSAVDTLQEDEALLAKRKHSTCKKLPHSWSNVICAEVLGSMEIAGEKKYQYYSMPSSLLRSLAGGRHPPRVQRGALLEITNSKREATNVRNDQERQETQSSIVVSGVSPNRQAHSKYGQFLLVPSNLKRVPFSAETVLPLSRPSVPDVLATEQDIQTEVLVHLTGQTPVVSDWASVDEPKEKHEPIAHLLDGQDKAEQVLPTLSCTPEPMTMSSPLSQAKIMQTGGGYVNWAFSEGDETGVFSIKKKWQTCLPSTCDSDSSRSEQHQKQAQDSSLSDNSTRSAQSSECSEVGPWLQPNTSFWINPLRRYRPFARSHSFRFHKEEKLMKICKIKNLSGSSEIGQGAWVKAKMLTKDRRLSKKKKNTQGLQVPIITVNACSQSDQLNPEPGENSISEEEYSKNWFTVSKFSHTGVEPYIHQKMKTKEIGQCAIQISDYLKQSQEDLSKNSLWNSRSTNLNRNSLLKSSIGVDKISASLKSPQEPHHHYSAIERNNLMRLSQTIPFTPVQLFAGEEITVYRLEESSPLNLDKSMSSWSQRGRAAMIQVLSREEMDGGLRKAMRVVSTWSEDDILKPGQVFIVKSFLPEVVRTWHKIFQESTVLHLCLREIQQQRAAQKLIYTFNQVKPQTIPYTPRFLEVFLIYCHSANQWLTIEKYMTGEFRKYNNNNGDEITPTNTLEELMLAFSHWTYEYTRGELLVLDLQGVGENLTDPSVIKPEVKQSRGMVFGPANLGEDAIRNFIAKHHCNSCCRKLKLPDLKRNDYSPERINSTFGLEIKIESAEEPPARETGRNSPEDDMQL", "experiment": "Selectivity interaction (KinomeScan (DiscoverX)) EUB0001619a TRPM6", "conditions": "at 1 µM"}}}
{"smiles": "CN(C)C/C=C/C(=O)Nc1ccc(C(=O)N2CCCC(Nc3ncc(Cl)c(-c4c[nH]c5ccccc45)n3)C2)cc1", "note": "(stereo unspecified)", "values": [{"measurement": "% of control", "setting": "[1]", "value": 1, "unit": "%"}]}
{"smiles": "CC[C@@H]1[C@H](F)C(=O)N[C@@H]1COc1nccc2cc(C(N)=O)c(OC)cc12", "note": "[ZIMLOVISERTIB]", "values": [{"measurement": "% of inhibition", "setting": "[2]", "value": -2.1, "unit": "%"}]}
{"smiles": "CCN(CC)CCCCNc1ncc2cc(-c3cc(OC)cc(OC)c3)c(NC(=O)NC(C)(C)C)nc2n1", "values": [{"measurement": "% of control", "setting": "[3]", "value": 100, "unit": "%"}]}
{"smiles": "COc1cc(N(C)c2ccnc3ccc(C(F)(F)F)cc23)cc(OC)c1OC", "values": [{"measurement": "% binding", "setting": "[4]", "value": 91, "unit": "%"}, {"measurement": "% binding", "setting": "[5]", "value": 86, "unit": "%"}]}
{"smiles": "Nc1cnc(N2CCc3cc(S(=O)(=O)Nc4c(F)cc(Cl)cc4F)cc(N4CCCC4=O)c32)nc1", "note": "[TP-020n]", "values": [{"measurement": "% of control", "setting": "[6]", "value": 61, "unit": "%"}]}
{"smiles": "C=CC(=O)Nc1cc(-n2c(=O)ccc3cnc4ccc(-c5ccc(NS(C)(=O)=O)cc5)cc4c32)ccc1C", "values": [{"measurement": "% of control", "setting": "[7]; at 1 µM", "value": 100, "unit": "%"}, {"measurement": "% of control", "setting": "[7]; at 10 µM", "value": 67, "unit": "%"}, {"measurement": "% of control", "setting": "[8]; at 1 µM", "value": 100, "unit": "%"}, {"measurement": "% of control", "setting": "[8]; at 10 µM", "value": 84, "unit": "%"}]}
{"smiles": "N#Cc1cccc(-c2c[nH]c3ncnc(N4CCOCC4)c23)c1", "values": [{"measurement": "% of control", "setting": "[9]", "value": 100, "unit": "%"}]}
